Assay results from PubChem BioAssay (NCI).
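Tested at 5 concentrations; 48 h exposure; 96-well plates; endpoints linearly interpolated, else capped at highest concentration. The concentration for 50% growth inhibition is given as GI50. TGI: total growth inhibition.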

Legend:
Assay in all cases: NCI anticancer screen, dose series, 48 h
786-0 renal = tested on: 786-0 renal
A498 renal = tested on: A498 renal
A549 NSCLC = tested on: A549 NSCLC
ACHN renal = tested on: ACHN renal
CAKI-1 renal = tested on: CAKI-1 renal
CCRF-CEM leukemia = tested on: CCRF-CEM leukemia
COLO 205 colon = tested on: COLO 205 colon
DLD-1 colon = tested on: DLD-1 colon
DMS 273 small cell lung = tested on: DMS 273 small cell lung
HCC-2998 colon = tested on: HCC-2998 colon
HCT-116 colon = tested on: HCT-116 colon
HCT-15 colon = tested on: HCT-15 colon
HL-60(TB) leukemia = tested on: HL-60(TB) leukemia
HOP-18 NSCLC = tested on: HOP-18 NSCLC
HOP-62 NSCLC = tested on: HOP-62 NSCLC
HT29 colon = tested on: HT29 colon
IGROV1 ovarian = tested on: IGROV1 ovarian
K-562 leukemia = tested on: K-562 leukemia
KM12 colon = tested on: KM12 colon
KM20L2 colon = tested on: KM20L2 colon
LOX IMVI melanoma = tested on: LOX IMVI melanoma
LXFL 529 NSCLC = tested on: LXFL 529 NSCLC
M14 melanoma = tested on: M14 melanoma
M19-MEL melanoma = tested on: M19-MEL melanoma
MALME-3M melanoma = tested on: MALME-3M melanoma
MOLT-4 leukemia = tested on: MOLT-4 leukemia
NCI-H226 lung = tested on: NCI-H226 lung
NCI-H23 lung = tested on: NCI-H23 lung
NCI-H460 lung = tested on: NCI-H460 lung
NCI-H522 lung = tested on: NCI-H522 lung
OVCAR-3 ovarian = tested on: OVCAR-3 ovarian
OVCAR-4 ovarian = tested on: OVCAR-4 ovarian
OVCAR-5 ovarian = tested on: OVCAR-5 ovarian
OVCAR-8 ovarian = tested on: OVCAR-8 ovarian
RPMI-8226 leukemia = tested on: RPMI-8226 leukemia
RXF 393 renal = tested on: RXF 393 renal
SK-MEL-2 melanoma = tested on: SK-MEL-2 melanoma
SK-MEL-28 melanoma = tested on: SK-MEL-28 melanoma
SK-MEL-5 melanoma = tested on: SK-MEL-5 melanoma
SK-OV-3 ovarian = tested on: SK-OV-3 ovarian
SN12C renal = tested on: SN12C renal
SW-620 colon = tested on: SW-620 colon
TK-10 renal = tested on: TK-10 renal
UACC-257 melanoma = tested on: UACC-257 melanoma
UACC-62 melanoma = tested on: UACC-62 melanoma
UO-31 renal = tested on: UO-31 renal

CC(=O)[CH-]C(=O)c1ccccc1.CC(=O)[CH-]C(=O)c1ccccc1.C[C@]12CCC(=O)C=C1CC[C@@H]1C2CC[C@@]2(C)C1CC[C@@H]2[O-].C[C@]12CCC(=O)C=C1CC[C@@H]1C2CC[C@@]2(C)C1CC[C@@H]2[O-].Cl.[Ti+4] (some centres not stated)
GI50 (786-0 renal): 13.5 µM | TGI (786-0 renal): 26.3 µM | GI50 (A498 renal): 16.5 µM | TGI (A498 renal): 30.8 µM | GI50 (A549 NSCLC): 18.4 µM | TGI (A549 NSCLC): 43.9 µM | GI50 (ACHN renal): 17.2 µM | TGI (ACHN renal): 49.5 µM | GI50 (CAKI-1 renal): 13.8 µM | TGI (CAKI-1 renal): 46.4 µM | GI50 (CCRF-CEM leukemia): 23.8 µM | TGI (CCRF-CEM leukemia): > 100 µM | GI50 (COLO 205 colon): 37 µM | TGI (COLO 205 colon): > 100 µM | GI50 (DLD-1 colon): 18.3 µM | TGI (DLD-1 colon): 45.9 µM | GI50 (DMS 273 small cell lung): 21.2 µM | TGI (DMS 273 small cell lung): 69.5 µM | GI50 (HCC-2998 colon): 21.8 µM | TGI (HCC-2998 colon): 42.2 µM | GI50 (HCT-116 colon): 27.6 µM | TGI (HCT-116 colon): > 100 µM | GI50 (HCT-15 colon): 15.2 µM | TGI (HCT-15 colon): 43 µM | GI50 (HL-60(TB) leukemia): 8.82 µM | TGI (HL-60(TB) leukemia): 69.1 µM | GI50 (HOP-18 NSCLC): 28.6 µM | TGI (HOP-18 NSCLC): 91.4 µM | GI50 (HOP-62 NSCLC): 20.6 µM | TGI (HOP-62 NSCLC): 59.9 µM | GI50 (HT29 colon): 17.5 µM | TGI (HT29 colon): 37.2 µM | GI50 (IGROV1 ovarian): 21.8 µM | TGI (IGROV1 ovarian): 46.4 µM | GI50 (K-562 leukemia): 23.2 µM | TGI (K-562 leukemia): > 100 µM | GI50 (KM12 colon): 20.3 µM | TGI (KM12 colon): 66.2 µM | GI50 (KM20L2 colon): 13.1 µM | TGI (KM20L2 colon): 34.1 µM | GI50 (LOX IMVI melanoma): 16.9 µM | TGI (LOX IMVI melanoma): 38.8 µM | GI50 (LXFL 529 NSCLC): 24.3 µM | TGI (LXFL 529 NSCLC): 87.3 µM | GI50 (M14 melanoma): 15.9 µM | TGI (M14 melanoma): 41.8 µM | GI50 (M19-MEL melanoma): 23.7 µM | TGI (M19-MEL melanoma): 96.9 µM | GI50 (MALME-3M melanoma): 20.1 µM | TGI (MALME-3M melanoma): 46.8 µM | GI50 (MOLT-4 leukemia): 35.3 µM | TGI (MOLT-4 leukemia): > 100 µM | GI50 (NCI-H226 lung): 12.9 µM | TGI (NCI-H226 lung): 35.2 µM | GI50 (NCI-H23 lung): 16.2 µM | TGI (NCI-H23 lung): 32.1 µM | GI50 (NCI-H460 lung): 14.8 µM | TGI (NCI-H460 lung): 30.9 µM | GI50 (NCI-H522 lung): 13.6 µM | TGI (NCI-H522 lung): 34.8 µM | GI50 (OVCAR-3 ovarian): 13.2 µM | TGI (OVCAR-3 ovarian): 65.5 µM | GI50 (OVCAR-4 ovarian): 23.4 µM | TGI (OVCAR-4 ovarian): > 100 µM | GI50 (OVCAR-5 ovarian): 11.8 µM | TGI (OVCAR-5 ovarian): 55.8 µM | GI50 (OVCAR-8 ovarian): 22.6 µM | TGI (OVCAR-8 ovarian): 93.6 µM | GI50 (RPMI-8226 leukemia): 18.8 µM | TGI (RPMI-8226 leukemia): > 100 µM | GI50 (RXF 393 renal): 16.2 µM | TGI (RXF 393 renal): 31.9 µM | GI50 (SK-MEL-2 melanoma): 12.7 µM | TGI (SK-MEL-2 melanoma): 31.4 µM | GI50 (SK-MEL-28 melanoma): 32.9 µM | TGI (SK-MEL-28 melanoma): > 100 µM | GI50 (SK-MEL-5 melanoma): 11.3 µM | TGI (SK-MEL-5 melanoma): 32 µM | GI50 (SK-OV-3 ovarian): 27 µM | TGI (SK-OV-3 ovarian): 56.9 µM | GI50 (SN12C renal): 20.8 µM | TGI (SN12C renal): 70.6 µM | GI50 (SW-620 colon): 17.5 µM | TGI (SW-620 colon): 43.7 µM | GI50 (TK-10 renal): 29.4 µM | TGI (TK-10 renal): > 100 µM | GI50 (UACC-257 melanoma): 19.3 µM | TGI (UACC-257 melanoma): 69.7 µM | GI50 (UACC-62 melanoma): 6.67 µM | TGI (UACC-62 melanoma): 33.8 µM | GI50 (UO-31 renal): 16.5 µM | TGI (UO-31 renal): 52.5 µM
